The text below walks through data of patent US11957732B2, “Compositions and methods for sensitizing low responsive tumors to cancer therapy” (priority 2016, dated 2024).

Bridge positions count the residues as written; N and C are the ends. Square brackets hold non-standard residues; d marks the D form. Ends that are not written are not given here. hPhe = N[C@@H](CCc1ccccc1)C(=O)O; Cit = NC(=O)NCCC[C@H](N)C(=O)O

Assay [1] deals with SGC-7901 gastric cancer cells. Nature of the assay: Growth suppression, apoptosis and IC50 in gastric cancer cells SGC-7901. The format is cell-based. As to conditions: Homo sapiens, read-out: IC50 (IC50 drift, DOX only or AMP-001/DOX combination); SGC-7901 cells.
Another assay has as its system iCell Cardiomyocytes. Nature of the assay: cells. As to conditions: Homo sapiens, Cardiomyocyte, read-out: IC50 in cardiomyocytes.
In a further assay the test system is MGC-803 xenograft. Nature of the assay: Synergy with doxorubicin in gastric cancer animal model in vivo. The arrangement: species or system athymic BALB/cA nu/nu female mice. As to conditions: 1 mg/kg i.p. every other day for 3 weeks.
Assay [2] has as its system MGC-803 gastric cancer cells. Nature of the assay: Growth suppression, apoptosis and IC50 in gastric cancer cells MGC-803. The assay is classed as cell-based. The following applies: Homo sapiens, MGC-803, read-out: IC50 (IC50 drift, DOX only or AMP-001/DOX combination).
The test system of another assay is MDA-MB-231 tumor cells. The experiment in a line: Synergistic cell death effect of AMP compounds with chemotherapy (doxorubicin, carboplatin). The assay is classed as cell-based. Here is the method:
MMP2 cleavable AMP-008 was dissolved in culture medium and sonicated for 2 min each and repeated for 3 times. After the cells treated with different concentration of doxorubicin HCl (Bedford Lab, Bedford, OH), AMP compounds alone or combination of doxorubicin and AMP compounds were tested for 17 hrs incubation respectively, the cells were washed three times with PBS (pH 7.4) and incubated with Cy5.5 Annexin-V (BD Bioscience Pharmingen) according to the instructions of the manufacture. The cells were imaged using Nikon Eclipse TE-300 fluorescence microscope and counted under Ex/Em 620-680 nm nm/700-750 nm.

The test system of assay [3] is MDA-MB-231 triple negative breast cancer cells. The experiment in a line: Cell death / apoptosis induction, concentration dependent treatment (FACS). The format is cell-based. The following applies: TNBC MDA-MB-231 cells, read-out: cell death effect IC-50.
Method: Briefly, MDA-MB-231 cells are seeded in 12-well culture plates and grown to 80% confluency, followed by 72 h treatment with various concentrations of drugs in various combinations; untreated MDA-MB-231 cells are used as control. After the completion of treatment time cells are trypsinized, washed, and analyzed for dead or apoptotic cells by staining with propidium iodide (10 μg/ml) for 15 min, followed by flow cytometry (FACS Aria Ill, BD Biosciences, San Jose, CA, USA) at the Stanford FACS Facility. Data are analyzed by Flow Jo FACS analysis software (Tree Star, Ashland, OR, USA).

Method for iCell Cardiomyocytes: Cardiomyocytes were derived from this engineered stem cell clone line as follows. Stem cell aggregates were formed from single cells and cultured in suspension in medium containing zebrafish bFGF (basic fibroblast growth factor) and fetal bovine serum. Upon observation of beating cardiac aggregates, cultures were subjected to blasticidin selection at 25 ug/ml to enrich the cardiomyocyte population. Cardiomyocyte aggregate cultures were maintained in Dulbecco's modified Eagle's medium (DMEM) containing 10% fetal bovine serum during cardiomyocyte selection through the duration of the culture prior to cryopreservation. At 30 to 32 days of culture the enriched, stem cell-derived cardiomyocytes were subjected to enzymatic dissociation using 0.5% trypsin to obtain single cell suspensions of purified cardiomyocytes, which were >98% cardiac troponin-T (cTNT) positive. These cells (iCell® Cardiomyocytes) were cryopreserved and stored in liquid nitrogen before delivery to Ionic Transport Assays from Cellular Dynamics International, Madison, WI.
For this study, single vials containing≈4.5×10^6 cardiomyocytes were thawed by immersing the frozen cryo-vial in a 37° C. water bath, transferring thawed cardiomyocytes into a 50 ml tube and diluting them with room temperature plating medium (iCell® Cardiomyocyte Plating Medium (iCPM), Cellular Dynamics International). […]

Take `COc1cccc2c1C(=O)c1c(O)c3c(c(O)c1C2=O)C[C@@](O)(C(=O)CO)C[C@@H]3O[C@H]1C[C@H](N)[C@H](O)[C@H](C)O1` [doxorubicin]: the IC50 in assay [1] is 0.436 µM; in the assay with iCell Cardiomyocytes, 9.6 µM; in assay [2] it was 1.08 µM. In the assay with MGC-803 xenograft, the “extent of tumor regression” value was “reasonable”.
As to “AMP-004: human beta-defensin joined to MMP2 cleavable peptide, SEQ ID NO: 003, three disulfide bonds (Ac-EGGGP[Cit]G[hPhe]YLDHYNCVSSGGQCLYSACPIFTKIQGTCYRGKAKCCK; disulfide 15-44, 22-37, 27-45)”, the “synergistic effect when both were administered together” value with MDA-MB-231 tumor cells (AMP compound and doxorubicin administered together) is reported as “Synergistic effect was same”. Besides, the “cell death, synergistic (not additive) effect” value in the assay with MDA-MB-231 tumor cells (pretreatment with AMP compound for 6 hrs followed by 1 μM doxorubicin) is given as “greater than 80%”. Further, in assay [3], the IC50 was roughly 5 µM.
